Some test systems named below: 786-0 renal; COLO 205 colon; ACHN renal; DU-145 prostate; OVCAR-5 ovarian; SR leukemia; HT29 colon; SNB-75 CNS.
Holding throughout (assay): NCI-60 cell line screen, 48 h

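Protocol summary: plate cells (96-well), add compound at 5 concentrations, incubate 48 h, interpolate endpoints linearly. Abbreviation: GI50, concentration required for 50% inhibition of growth. TGI: concentration producing complete growth inhibition.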

Consider `CC(C)C[CH2][Ge]([CH2]CC(C)C)([CH2]CC(C)C)[CH2]CC(C)C`, for which the GI50 in the assay with 786-0 renal, with COLO 205 colon, in the assay on ACHN renal, in the assay on DU-145 prostate, in the assay with OVCAR-5 ovarian and in the assay with SR leukemia was above 100 µM each time. The GI50 in the assay on HT29 colon and with SNB-75 CNS was above 100 µM in each case. The TGI in the assay with 786-0 renal, with COLO 205 colon, in the assay with ACHN renal, in the assay on DU-145 prostate, with OVCAR-5 ovarian and in the assay on SR leukemia was above 100 µM in each case. Also, the TGI in the assay on HT29 colon and in the assay on SNB-75 CNS was above 100 µM each time.

Regarding `COc1ccc(-n2cc(-c3cc(OC)c(OC)c(OC)c3)[nH]c2=S)cc1Cl`, the GI50 with 786-0 renal was 23.4 µM; with COLO 205 colon, 70.8 µM; in the assay on ACHN renal, 44.3 µM; in the assay with DU-145 prostate it was 35.7 µM; in the assay on OVCAR-5 ovarian it was 28.3 µM; with HT29 colon, above 100 µM. The GI50 in the assay on SNB-75 CNS was 18.6 µM. Further, the TGI in the assay on 786-0 renal is 54.5 µM; in the assay on COLO 205 colon, above 100 µM; in the assay on ACHN renal, above 100 µM; in the assay with DU-145 prostate it was above 100 µM; in the assay with OVCAR-5 ovarian, above 100 µM; in the assay on HT29 colon it was above 100 µM. The compound further had a TGI with SNB-75 CNS of 48.7 µM.

On to `Cc1cn([C@H]2C[C@H](O)[C@@H](CO)O2)c(=O)nc1N`, for which the TGI in the assay with 786-0 renal, with COLO 205 colon, in the assay on ACHN renal, in the assay on DU-145 prostate, with OVCAR-5 ovarian and in the assay with SR leukemia was above 100 µM throughout. Moreover, the TGI in the assay on HT29 colon and in the assay on SNB-75 CNS was above 100 µM throughout.

As to `ClC1c2ccccc2C2(c3ccccc3)OOC1(c1ccccc1)O2` (centres undefined), the TGI stood at 2.98 µM with 786-0 renal; 4.58 µM with COLO 205 colon; 2.89 µM with ACHN renal; 11.2 µM with OVCAR-5 ovarian; 3.4 µM in the assay with SR leukemia; 3.69 µM with HT29 colon. Also, in the assay with SNB-75 CNS, the TGI amounted to 3.27 µM.

As to `O=C(Nc1ccc(Nc2ccncc2)cc1)c1ccc(Nc2ccnc3ccc([N+](=O)[O-])cc23)cc1[N+](=O)[O-]`, the GI50 with 786-0 renal is 6.03 µM; in the assay on COLO 205 colon, 17.5 µM; with ACHN renal, 15.5 µM; in the assay with DU-145 prostate it was 5.55 µM; with OVCAR-5 ovarian it was 38 µM; in the assay on SR leukemia it was 16.6 µM. In addition, the GI50 in the assay with HT29 colon is 45.4 µM; in the assay on SNB-75 CNS it was 16 µM. Further, the TGI in the assay on 786-0 renal was 42.4 µM; with COLO 205 colon, above 100 µM; in the assay on ACHN renal, 37.2 µM; in the assay with DU-145 prostate, 25.5 µM; in the assay with OVCAR-5 ovarian, above 88.4 µM; in the assay with SR leukemia it was 38.8 µM. In addition, the TGI in the assay on HT29 colon was above 100 µM; in the assay with SNB-75 CNS, 50.6 µM.

Consider `CN1CCN(c2ccc3nc(-c4[nH]ncc4Nc4ncnc5c4OCCCN5)[nH]c3c2)CC1`, for which the GI50 was below 0.0119 µM in the assay with 786-0 renal; below 0.01 µM in the assay on COLO 205 colon; 0.0139 µM in the assay on ACHN renal; below 0.0118 µM with DU-145 prostate; 0.0121 µM in the assay on OVCAR-5 ovarian; below 0.01 µM in the assay with SR leukemia. The GI50 in the assay on HT29 colon is below 0.0126 µM; in the assay with SNB-75 CNS, below 0.01 µM. Also, the TGI with 786-0 renal amounted to 0.0944 µM; in the assay with COLO 205 colon it was 0.0157 µM; in the assay on ACHN renal it was 0.105 µM; with DU-145 prostate, 0.482 µM; in the assay with OVCAR-5 ovarian it was 0.163 µM; in the assay on HT29 colon, 0.1 µM. In addition, in the assay on SNB-75 CNS, the TGI turned out to be 0.0177 µM.

`C=C(C)[C@@H]1CC[C@]2(C(=O)O)CC[C@]3(C)[C@H](CC[C@@H]4[C@@]5(C)C/C(=C/c6cccc(I)c6)C(=O)C(C)(C)[C@@H]5CC[C@]43C)[C@@H]12`: the GI50 with 786-0 renal was 2.46 µM; in the assay with ACHN renal, 2.62 µM; with DU-145 prostate it was 2.63 µM; in the assay on OVCAR-5 ovarian, 3.19 µM; in the assay with SR leukemia, 2.71 µM; in the assay on HT29 colon it was 2.9 µM. Further, the TGI with 786-0 renal was determined as 6.72 µM; with ACHN renal it was 11 µM; in the assay on DU-145 prostate, 7.84 µM; in the assay on OVCAR-5 ovarian it was 14.7 µM; in the assay on SR leukemia, 12.5 µM; in the assay on HT29 colon, 9.76 µM.

As for `CCSc1ccc([C@@H]2[C@@H](N)C(=O)N2c2cc(OC)c(OC)c(OC)c2)cc1`, the GI50 in the assay with 786-0 renal is 0.08 µM; in the assay with COLO 205 colon, 0.0513 µM; with ACHN renal, 0.071 µM; with DU-145 prostate, 0.188 µM; in the assay with OVCAR-5 ovarian, 0.892 µM; in the assay on SR leukemia, 0.0449 µM. The GI50 in the assay with HT29 colon is 0.0333 µM; with SNB-75 CNS it was 0.0375 µM. In addition, the TGI with 786-0 renal is above 100 µM; with COLO 205 colon, 11.7 µM; in the assay with ACHN renal it was above 100 µM; in the assay with DU-145 prostate, above 100 µM; in the assay on OVCAR-5 ovarian, above 100 µM; in the assay with SR leukemia, above 100 µM. In addition, the TGI was 18 µM in the assay on HT29 colon and above 100 µM with SNB-75 CNS.

As for `CCOC(=O)c1ccc(N(C=O)CCC(=O)CCl)cc1`, the GI50 in the assay with 786-0 renal is 0.333 µM; with COLO 205 colon, 0.315 µM; in the assay on ACHN renal, 0.432 µM; in the assay on DU-145 prostate it was 0.366 µM; in the assay with OVCAR-5 ovarian, 0.474 µM; in the assay with HT29 colon it was 0.186 µM. The GI50 with SNB-75 CNS is 0.997 µM. The TGI in the assay with 786-0 renal was 4.08 µM; in the assay on COLO 205 colon, 0.838 µM; in the assay on ACHN renal, 1.81 µM; in the assay on DU-145 prostate, 13.9 µM; with OVCAR-5 ovarian, 9.23 µM; in the assay on HT29 colon it was 1.18 µM. This compound came in with a TGI in the assay with SNB-75 CNS of 13.6 µM.

As for `CC(C)=CC(=O)N[C@@H]1CC2CCC3C(CC[C@@]4(C)C3CC[C@@H]4C(C)N(C)C)[C@@]2(C)C[C@@H]1O` (some centres undefined), the GI50 with 786-0 renal was 4.31 µM; in the assay on COLO 205 colon it was 1.79 µM; with ACHN renal, 6.36 µM; in the assay on DU-145 prostate it was 10.7 µM; in the assay on OVCAR-5 ovarian it was 10.6 µM; in the assay on HT29 colon it was 0.496 µM. Moreover, the GI50 with SNB-75 CNS is 5.97 µM. The TGI with 786-0 renal was 14.2 µM; with COLO 205 colon, 3.71 µM; with ACHN renal it was 32.6 µM; in the assay on DU-145 prostate, above 100 µM; with OVCAR-5 ovarian, 38.2 µM; in the assay on HT29 colon it was 2.92 µM. In the assay on SNB-75 CNS, this compound yielded a TGI of 23.3 µM.

For `CCOc1cc2c(=O)oc3c(OC)ccc4ccc(c1OC)c2c43`, the TGI with 786-0 renal, in the assay on COLO 205 colon, in the assay with ACHN renal, with DU-145 prostate, in the assay on OVCAR-5 ovarian and in the assay with HT29 colon was above 100 µM each time. This compound returned a TGI in the assay with SNB-75 CNS above 100 µM.
